Reference: patent publication US12226386B2, “Compositions and methods for treating biofilms” (The Regents of the University of California, priority 2018, dated 2025)

Columns and labels:
[1] = system: Candida and Staphylococcus biofilms; experiment: biofilm assays (sustained inhibition and disruption), bacterial and fungal; type: cell-based, Candida albicans; Staphylococcus aureus; details: in both assays (sustained inhibition and disruption)
Protocol: (§1) In vitro biofilm formation was tested using two assays, sustained inhibition and disruption. Both assays assess biofilm formed on polystyrene plates. The first, tests the effects of amino acid solution on a developing biofilm, while the latter tests the effects of the solution on a pre-formed mature biofilm, both compared to media without supplemented amino acids.
(§2) Other amino acids in the blood of animals could combat bacterial and fungal biofilm and therefore may be useful in treating these bacterial and fungal infections that would lie on the external surfaces of infected animals such as humans and could also be used to combat these pathogens on instruments and surfaces that need to be treated. Two types of biofilm assays were performed: a sustained inhibition assay and a disruption assay. The sustained inhibition assay assessed the compound's ability to prevent biofilm development throughout all stages of biofilm formation, while the disruption assay assessed the compound's ability to break up an existing mature biofilm.
(§3) For fungal biofilm assays, all solutions were prepared in RPMI 1640 medium. All bacterial biofilm solutions were prepared in Tryptic Soy Broth (TSB), supplemented with 1% glucose (henceforth referred to as TSB-G). All subsequent procedures were performed in a manner that maintained sterility. A solution of each amino acid to be tested was prepared in weight to volume concentrations ranging from 0.1-5.0%. Amino acids were also tested in combinations. Compound solutions were homogenized with gentle agitation in the dark (4° C., 24 hours) before use.
(§4) Fungal strains were streaked on Yeast Peptone Dextrose (YPD) agar plates and incubated at 30° C. for 48 hours. A single colony from each strain to be tested was inoculated into YPD broth and grown for 12 hours, at 30° C., shaking at 225 rpm. For the fungal biofilm inhibition assay, 1 μl of saturated overnight cell culture was added to either 80 μL of RPMI-1640 or RPMI-1640 supplemented with the amino acid compound solution to be tested, in a 384-well plate. The cells were allowed to adhere to the plate for 90 minutes at 37° C. shaking at 350 rpm. Loosely bound cells were washed once with phosphate buffered saline (PBS) and 80 μl of RPMI-1640, or RPMI-1640 supplemented with the amino acid compound solution was added to the plate. The plate was further incubated for 24 hours at 37° C. shaking at 350 rpm. Media was carefully aspirated and the biofilm was measured by optical density at 600 nm. Twelve replicates were performed for each tested condition and the reported values are normalized to the control (RPMI-1640 media only). For the fungal biofilm disruption assays, 80 μL of RPMI-1640 was added to the plate, along with 1 μL of overnight cell culture. The cells were allowed to adhere to the plate for 90 minutes at 37° C. shaking at 350 rpm. Loosely bound cells were washed once with PBS and 80 μL of RPMI-1640 was added to the plate. The plate was further incubated for 24 hours at 37° C. shaking at 350 rpm. Media was carefully aspirated from the mature biofilm and 80 μL of RPMI-1640, or RPMI-1640 supplemented with the amino acid compound solution to be tested, was gently added to the plate. The plate was further incubated for 24 hours at 37° C. shaking at 350 rpm. Media was carefully aspirated and the biofilm was measured by optical density at 600 nm. Twelve replicates were performed for each tested condition and the reported values are normalized to the control (RPMI-1640 media only).
Bacterial strains were streaked on Blood Agar plates (5% sheep blood in Tryptic Soy Agar) and incubated at 37° C. for 24 hours. A single colony from each strain to be tested was inoculated in a TSB broth and grown for 12 hours, at 37° C. shaking at 225 rpm. For the bacterial biofilm inhibition assays, 1 μL of saturated overnight cell culture was added to either 80 μL of TSB-G, or TSB-G supplemented with the amino acid compound solution to be tested, in a 384-well plate. […]

[2] = system: S. aureus (MRSA) biofilms; experiment: in vitro biofilm disruption assay, bacterial; type: cell-based; details: Staphylococcus aureus, 24 h, disruption, S. aureus, 1% amino acid; for inhibition at 1 %: p<0.001, read-out: Reduce B Biofilm
Protocol: as §1, §2, §3
(§5) Bacterial strains were streaked on Blood Agar plates (5% sheep blood in Tryptic Soy Agar) and incubated at 37° C. for 24 hours. A single colony from each strain to be tested was inoculated in a TSB broth and grown for 12 hours, at 37° C. shaking at 225 rpm. For the bacterial biofilm inhibition assays, 1 μL of saturated overnight cell culture was added to either 80 μL of TSB-G, or TSB-G supplemented with the amino acid compound solution to be tested, in a 384-well plate. The cells were allowed to adhere to the plate for 60 minutes at 37° C. without shaking. The media was carefully aspirated and 80 μL of TSB-G, or TSB-G supplemented with the amino acid compound solution was added to the plate. The plate was further incubated for 24 hours at 37° C. without shaking. Media was carefully aspirated and the biofilm was measured by optical density at 600 nm. Eight or twelve replicates were performed for each tested condition and the reported values are normalized to the control (TSB-G media only). For the bacterial biofilm disruption assays, 80 μL of TSB-G was added to the plate, along with 1 μL of overnight cell culture. The cells were allowed to adhere to the plate for 60 minutes at 37° C. with no shaking. The media was carefully aspirated and 80 μL of TSB-G was added to the plate. The plate was further incubated for 24 hours at 37° C. with no shaking. Media was carefully aspirated from the mature biofilm and 80 μL of TSB-G, or TSB-G supplemented with the amino acid to be tested, was gently added to the plate. The plate was further incubated for 24 hours at 37° C. without shaking. Media was aspirated and the biofilm was measured by optical density at 600 nm. Twelve replicates were performed for each tested condition and the reported values are normalized to the control (TSB-G media only).
For disruption assay, 80 μl of TSB-G was added to the plate, along with 1 μl of overnight cell culture. The cells were allowed to adhere to the plate for 60 minutes at 37° C. with no shaking. The media was carefully aspirated and 80 μl of TSB-G was added to the plate. The plate was further incubated for 24 hours at 37° C. with no shaking. Media was carefully aspirated from the mature biofilm and 80 μl of TSB-G, or TSB-G supplemented with the amino acid to be tested, was added drop wise to the plate. The plate was further incubated for 24 hours at 37° C. with no shaking. […]

C. albicans biofilms [3] = experiment: in vitro sustained inhibition biofilm assay, fungal; type: cell-based, Candida albicans; details: 1% amino acid, p<0.001
Protocol: (§6) Two types of biofilm assays were performed: a sustained inhibition assay and a disruption assay.
as §3
as §4, with “The cells were allowed to adhere to the plate for 90 minutes at 37° C. shaking at 350 rpm. Loosely bound cells were washed once with phosphate buffered saline (PBS) and 80 μl of RPMI-1640, or RPMI-1640 supplemented with the amino acid compound solution was added to the plate. The plate was further incubated for 24 hours at 37° C. shaking at 350 rpm.” left out, “The cells were allowed to adhere to the plate for 90 minutes at 37° C. shaking at 350 rpm.” left out, “The plate was further incubated for 24 hours at 37° C. shaking at 350 rpm.” left out
The plate was further incubated for 24 hours at 37° C. with shaking (350 rpm). Media was carefully aspirated and the biofilm was measured by optical density at 600 nm.

[4] = system: fungal biofilms (C. albicans); experiment: biofilm assays (sustained inhibition and/or disruption), fungal; type: cell-based, Candida albicans; details: in at least one of the two biofilm assays; for anti-biofilm properties against fungal biofilms: administered individually
Protocol: Other amino acids in the blood of animals could combat bacterial and fungal biofilm and therefore may be useful in treating these bacterial and fungal infections that would lie on the external surfaces of infected animals such as humans and could also be used to combat these pathogens on instruments and surfaces that need to be treated. Two types of biofilm assays were performed: a sustained inhibition assay and a disruption assay. The sustained inhibition assay assessed the compound's ability to prevent biofilm development throughout all stages of biofilm formation, while the disruption assay assessed the compound's ability to break up an existing mature biofilm. For fungal biofilm assays, all solutions were prepared in RPMI 1640 medium. All bacterial biofilm solutions were prepared in Tryptic Soy Broth (TSB), supplemented with 1% glucose (henceforth referred to as TSB-G). All subsequent procedures were performed in a manner that maintained sterility. […] Amino acids were also tested in combinations. Compound solutions were homogenized with gentle agitation in the dark (4° C., 24 hours) before use. Fungal strains were streaked on Yeast Peptone Dextrose (YPD) agar plates and incubated at 30° C. for 48 hours. A single colony from each strain to be tested was inoculated into YPD broth and grown for 12 hours, at 30° C., shaking at 225 rpm. For the fungal biofilm inhibition assay, 1 μl of saturated overnight cell culture was added to either 80 μL of RPMI-1640 or RPMI-1640 supplemented with the amino acid compound solution to be tested, in a 384-well plate. The cells were allowed to adhere to the plate for 90 minutes at 37° C. shaking at 350 rpm. Loosely bound cells were washed once with phosphate buffered saline (PBS) and 80 μl of RPMI-1640, or RPMI-1640 supplemented with the amino acid compound solution was added to the plate. The plate was further incubated for 24 hours at 37° C. shaking at 350 rpm. Media was carefully aspirated and the biofilm was measured by optical density at 600 nm. Twelve replicates were performed for each tested condition and the reported values are normalized to the control (RPMI-1640 media only). For the fungal biofilm disruption assays, 80 μL of RPMI-1640 was added to the plate, along with 1 μL of overnight cell culture. The cells were allowed to adhere to the plate for 90 minutes at 37° C. shaking at 350 rpm. Loosely bound cells were washed once with PBS and 80 μL of RPMI-1640 was added to the plate. The plate was further incubated for 24 hours at 37° C. shaking at 350 rpm. Media was carefully aspirated from the mature biofilm and 80 μL of RPMI-1640, or RPMI-1640 supplemented with the amino acid compound solution to be tested, was gently added to the plate. The plate was further incubated for 24 hours at 37° C. shaking at 350 rpm. Media was carefully aspirated and the biofilm was measured by optical density at 600 nm. Twelve replicates were performed for each tested condition and the reported values are normalized to the control (RPMI-1640 media only).

C. albicans biofilms [5] = experiment: in vitro biofilm disruption assay, fungal; type: cell-based, Candida albicans; details: 1% amino acid, p<0.001
Protocol: as §6, §3
as §4, with “The cells were allowed to adhere to the plate for 90 minutes at 37° C. shaking at 350 rpm. Loosely bound cells were washed once with phosphate buffered saline (PBS) and 80 μl of RPMI-1640, or RPMI-1640 supplemented with the amino acid compound solution was added to the plate. The plate was further incubated for 24 hours at 37° C. shaking at 350 rpm.” left out, “The cells were allowed to adhere to the plate for 90 minutes at 37° C. shaking at 350 rpm.” left out, “The plate was further incubated for 24 hours at 37° C. shaking at 350 rpm.” left out
The cells were allowed to adhere to the plate for 90 minutes at 37° C. with shaking (350 rpm). […] The plate was further incubated for 24 hours at 37° C. with shaking (350 rpm). […] The plate was further incubated for 24 hours at 37° C. with shaking (350 rpm). Media was carefully aspirated and the biofilm was measured by optical density at 600 nm.

[6] = system: bacterial biofilms (MRSA); experiment: biofilm assays (sustained inhibition and/or disruption), bacterial; type: cell-based, Staphylococcus aureus; details: in at least one of the two biofilm assays
Protocol: as §2, §3, §5

## Cn1cnc(C[C@H](N)C(=O)O)c1 [1-Methylhistidine, 1-methyl-L-histidine]
[1]
  effect on bacterial or fungal biofilms: neutral

## CCC(N)C(=O)O (stereo not drawn) [2 Aminobutyric Acid, 2-aminobutyric acid]
[1]
  effect on bacterial or fungal biofilms: neutral

## Cn1cncc1C[C@H](N)C(=O)O [3-Methylhistidine, 3-methyl-L-histidine]
[2]
  inhibition at 1 %: 10 to 30%
C. albicans biofilms [3]
  Promote F Biofilm: ● (a single dot [i.e. ●] signifies minor effect (from about 10 to about 30% change))
[4]
  effect on fungal biofilm growth: support (improve) fungal biofilm growth

## NCCO [Ethanolamine, ethanolamine]
C. albicans biofilms [3]
  Reduce F Biofilm: ● (a single dot [i.e. ●] signifies minor effect (from about 10 to about 30% change))
[4]
  anti-biofilm properties against fungal biofilms: reduction by less than two-fold

## NC(=O)CC[C@H](N)C(=O)O [Glutamine, L-glutamine]
[1]
  effect on bacterial or fungal biofilms: neutral

## N[C@@H](Cc1c[nH]cn1)C(=O)O [Histidine, L-histidine]
[1]
  effect on bacterial or fungal biofilms: neutral

## N[C@@H](COP(=O)(O)O)C(=O)O [Phosphoserine, O-phospho-L-serine]
[2]
  inhibition at 1 %: 10 to 30%
[4]
  anti-biofilm properties against fungal biofilms: reduction by less than two-fold
C. albicans biofilms [5]
  Reduce F Biofilm: ● (a single dot [i.e. ●] signifies minor effect (from about 10 to about 30% change))

## O=C(O)[C@@H]1CCCN1 [Proline, L-proline]
[2]; p<0.001, read-out: Promote B Biofilm
  activation at 1 %: 10 to 30%
[6]
  effect on bacterial biofilm growth: support (improve) bacterial biofilm growth
[4]
  anti-biofilm properties against fungal biofilms: reduction by less than two-fold
C. albicans biofilms [5]
  Reduce F Biofilm: ● (a single dot [i.e. ●] signifies minor effect (from about 10 to about 30% change))

## N[C@@H](Cc1c[nH]c2ccccc12)C(=O)O [Tryptophan, L-tryptophan]
[1]
  effect on bacterial or fungal biofilms: neutral

## N[C@@H](Cc1ccc(O)cc1)C(=O)O [Tyrosine, L-tyrosine]
[1]
  effect on bacterial or fungal biofilms: neutral

## CC(C)[C@H](N)C(=O)O [Valine, L-valine]
[2]
  inhibition at 1 %: 10 to 30%
C. albicans biofilms [3]
  Promote F Biofilm: ● (a single dot [i.e. ●] signifies minor effect (from about 10 to about 30% change))
[4]
  effect on fungal biofilm growth: support (improve) fungal biofilm growth
